Experimental data taken from US9840513B2 (AbbVie S.à.r.l., priority 2015, dated 2017).
pEC50: −log10 of the molar value.

Tests used:
[1] = biological target: T1, F508delCFTR cell surface expression in CFBE41o-F508delCFTR-HRP cells (Homo sapiens, UniProt P13569, DEL508-508); experiment: Cell Surface Expression-Horse Radish Peroxidase (CSE-HRP) Assay; format: cell-based; conditions: for pEC50: CFBE41o-F508delCFTR-HRP cells, 18-24 hours at 33° C., 8-point curve, highest concentration 20 μM; for Maximum % activity (%): maximum at any tested concentration, normalized to on-plate positive control (3 μM)
T1 construct: fused on or other part: Horseradish peroxidase (HRP) reporter inserted in the fourth exofacial (extracellular) loop of CFTR; expression is doxycycline-inducible
Method in brief: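 CFBE41o- cells with HRP-tagged F508delCFTR, expression induced by 0.5 μg/mL doxycycline for 72 h at 37 °C, then compound for 18-24 h at 33 °C (8-point, 3-fold, top 20 μM). Surface HRP measured by luminol luminescence; % activity normalised to 3 μM positive-control corrector; EC50 from variable-slope sigmoidal fit, three replicate plates.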

[2] = biological target: T2, F508delCFTR in primary hBE cells with F508del/F508del CFTR mutation (Homo sapiens, UniProt P13569, DEL508-508); experiment: Transepithelial Clamp Circuit on Human Bronchial Epithelial Cells Conductance Assay (hBE-TECC); format: cell-based; conditions: for pEC50: primary hBE cells F508del/F508del, 18-24 hours at 37° C., equivalent short circuit current, 6 concentrations; for Maximum % activity (%): relative to positive control (3 μM) coupled with control potentiator
T2 construct: cells isolated from CF patients with the homozygous mutation; endogenous in cells; host or cells: primary human bronchial epithelial (hBE) cells from F508del/F508del CF patients
Source text: Transepithelial Clamp Circuit on Human Bronchial Epithelial Cells Conductance Assay:
A cell based assay using the primary human bronchial epithelial cells (hBE) was used as a secondary assay to test novel F508delCFTR correctors for their activity on primary hBE cells with F508del/F508del CFTR mutation. The assay used a TECC-24 (Transepithelial Clamp Circuit for 24 wells) instrument that measures the functionality of the mutated channel by measuring the equivalent short circuit current (Ieq) generated by the polarized epithelial cells. The instrument works by measuring the transepithelial potential difference (Vt) and transepithelial resistance (Rt) in an open circuit format, and the Ieq is calculated by using Ohms law (Ieq=Vt/Rt). The assay was run in a 24-well format and all 24-wells were measured at the same time point giving a higher throughput for this assay.
Primary human bronchial epithelial (hBE) cells from F508del/F508delCFTR patients were expanded from 1×10^6 to 250×10^6 cells (Neuberger T, Burton B, Clark H and VanGoor F; Cystic Fibrosis, Methods in Mole Biol 741; eds. Amaral M D and Kunzelmann K, 2011). For this purpose, cells isolated from CF patients with the homozygous mutation were seeded onto 24 well Corning (Cat #3378) filter plates that were coated with 3T3 conditioned media and grown at an air-liquid interface for 35 days using an Ultroser® G supplemented differentiation media. Apical surface mucus was removed 72 hours before the experiment using 3 mM dithiothreitol (DTT) in phosphate buffered saline (PBS). The apical surface was washed again 24 hours before the experiment using PBS. The cells were incubated with the desired dose response of the corrector compounds 18-24 hours at 37° C., 5% CO2. The corrector compounds are only added on the basolateral side of the epithelial cells.
On the day of measuring the corrector activity on the TECC, the cells were switched into a bicarbonate and serum free F-12 Coon's medium and allowed to equilibrate for 90 minutes in a CO2 free incubator. At the time of measurement, the apical and basolateral sides of the filter were bathed with the F-12 Coon's modification media (with 20 mM 4-(2-hydroxyethyl)-1-piperazineethanesulfonic acid (HEPES), pH 7.4 (using 1 M tris(hydroxymethyl)aminomethane (Tris)), and the measurements were made at 36.5° C. Transepithelial voltage (Vt) and transepithelial resistance (Rt) were measured using a 24 channel transepithelial current clamp (TECC-24). Current responses to the sequential addition of benzamil (apical 6 μM addition; for inhibiting epithelial ENaC channel), forskolin (apical and basolateral 10 μM addition; for activating the CFTR channel), control potentiator (N-(3-carbamoyl-5,5,7,7-tetramethyl-4,7-dihydro-5H-thieno[2,3-c]pyran-2-yl)-1H-pyrazole-5-carboxamide; apical and basolateral […] addition; for potentiating the CFTR channel) and bumetanide (basolateral 20 μM addition; for inhibiting the Na:2Cl:K co-transporter, an indirect measure of inhibiting the Cl-secretion driven by CFTR channel) were measured.
All plates contained negative controls (dimethyl sulfoxide, DMSO) which coupled with the control potentiator (N-(3-carbamoyl-5,5,7,7-tetramethyl-4,7-dihydro-5H-thieno[2,3-c]pyran-2-yl)-1H-pyrazole-5-carboxamide) sets the null response and positive controls (3 μM of 3-[(2R,4R)-4-({[1-(2,2-difluoro-1,3-benzodioxol-5-yl)cyclopropyl]carbonyl}amino)-7-methoxy-3,4-dihydro-2H-chromen-2-yl]benzoic acid) coupled with the control potentiator sets the 100% response to measure the correction of the mutated CFTR channel. The maximum percent activity is reported relative to the positive control value.
The % activity measured at each of the 6 test concentrations of the test compound was normalized to the on-plate positive control using the following formula: % activity=[[…]]*100 […]

T1 sequence (P13569 with tags, fused parts or gaps DEL508-508 limits assumed): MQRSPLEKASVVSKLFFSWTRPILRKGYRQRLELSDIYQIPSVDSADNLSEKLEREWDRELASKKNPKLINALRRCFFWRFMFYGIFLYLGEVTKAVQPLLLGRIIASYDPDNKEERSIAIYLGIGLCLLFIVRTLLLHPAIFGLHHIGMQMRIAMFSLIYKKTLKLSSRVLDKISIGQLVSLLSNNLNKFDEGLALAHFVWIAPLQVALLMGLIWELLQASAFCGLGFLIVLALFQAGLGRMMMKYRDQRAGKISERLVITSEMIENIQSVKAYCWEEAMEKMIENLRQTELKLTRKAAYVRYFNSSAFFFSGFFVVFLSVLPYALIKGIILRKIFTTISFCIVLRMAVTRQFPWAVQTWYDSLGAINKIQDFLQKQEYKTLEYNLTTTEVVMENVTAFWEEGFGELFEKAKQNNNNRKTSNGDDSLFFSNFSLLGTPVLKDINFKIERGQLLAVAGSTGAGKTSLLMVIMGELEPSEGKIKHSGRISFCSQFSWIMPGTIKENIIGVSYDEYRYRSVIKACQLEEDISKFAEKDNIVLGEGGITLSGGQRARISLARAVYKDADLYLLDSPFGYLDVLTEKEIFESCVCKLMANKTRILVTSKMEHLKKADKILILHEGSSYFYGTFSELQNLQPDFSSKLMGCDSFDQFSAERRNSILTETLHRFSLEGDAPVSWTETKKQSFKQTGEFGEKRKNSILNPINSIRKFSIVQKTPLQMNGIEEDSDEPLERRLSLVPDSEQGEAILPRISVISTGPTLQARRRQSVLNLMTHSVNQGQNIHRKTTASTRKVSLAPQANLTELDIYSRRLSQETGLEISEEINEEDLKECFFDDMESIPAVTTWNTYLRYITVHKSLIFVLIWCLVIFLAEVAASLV
T1 sequence (P13569 919-1480 limits assumed, stated change not applied): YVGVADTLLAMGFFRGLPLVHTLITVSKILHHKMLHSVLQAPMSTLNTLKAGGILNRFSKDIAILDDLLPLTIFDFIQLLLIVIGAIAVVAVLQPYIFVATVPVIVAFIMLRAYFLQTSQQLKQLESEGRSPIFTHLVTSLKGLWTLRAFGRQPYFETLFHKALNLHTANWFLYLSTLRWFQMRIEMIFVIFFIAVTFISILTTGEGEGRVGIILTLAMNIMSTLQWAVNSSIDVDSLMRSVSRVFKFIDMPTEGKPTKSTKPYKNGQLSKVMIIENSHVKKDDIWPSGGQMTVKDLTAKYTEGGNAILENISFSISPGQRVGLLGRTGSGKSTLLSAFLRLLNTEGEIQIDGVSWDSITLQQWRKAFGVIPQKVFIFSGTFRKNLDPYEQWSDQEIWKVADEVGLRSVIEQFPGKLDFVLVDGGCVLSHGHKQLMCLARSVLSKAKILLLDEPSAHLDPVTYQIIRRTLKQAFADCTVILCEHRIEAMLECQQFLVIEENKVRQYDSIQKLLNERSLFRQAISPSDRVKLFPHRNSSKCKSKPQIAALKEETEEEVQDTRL
T2 sequence (P13569 with tags, fused parts or gaps DEL508-508): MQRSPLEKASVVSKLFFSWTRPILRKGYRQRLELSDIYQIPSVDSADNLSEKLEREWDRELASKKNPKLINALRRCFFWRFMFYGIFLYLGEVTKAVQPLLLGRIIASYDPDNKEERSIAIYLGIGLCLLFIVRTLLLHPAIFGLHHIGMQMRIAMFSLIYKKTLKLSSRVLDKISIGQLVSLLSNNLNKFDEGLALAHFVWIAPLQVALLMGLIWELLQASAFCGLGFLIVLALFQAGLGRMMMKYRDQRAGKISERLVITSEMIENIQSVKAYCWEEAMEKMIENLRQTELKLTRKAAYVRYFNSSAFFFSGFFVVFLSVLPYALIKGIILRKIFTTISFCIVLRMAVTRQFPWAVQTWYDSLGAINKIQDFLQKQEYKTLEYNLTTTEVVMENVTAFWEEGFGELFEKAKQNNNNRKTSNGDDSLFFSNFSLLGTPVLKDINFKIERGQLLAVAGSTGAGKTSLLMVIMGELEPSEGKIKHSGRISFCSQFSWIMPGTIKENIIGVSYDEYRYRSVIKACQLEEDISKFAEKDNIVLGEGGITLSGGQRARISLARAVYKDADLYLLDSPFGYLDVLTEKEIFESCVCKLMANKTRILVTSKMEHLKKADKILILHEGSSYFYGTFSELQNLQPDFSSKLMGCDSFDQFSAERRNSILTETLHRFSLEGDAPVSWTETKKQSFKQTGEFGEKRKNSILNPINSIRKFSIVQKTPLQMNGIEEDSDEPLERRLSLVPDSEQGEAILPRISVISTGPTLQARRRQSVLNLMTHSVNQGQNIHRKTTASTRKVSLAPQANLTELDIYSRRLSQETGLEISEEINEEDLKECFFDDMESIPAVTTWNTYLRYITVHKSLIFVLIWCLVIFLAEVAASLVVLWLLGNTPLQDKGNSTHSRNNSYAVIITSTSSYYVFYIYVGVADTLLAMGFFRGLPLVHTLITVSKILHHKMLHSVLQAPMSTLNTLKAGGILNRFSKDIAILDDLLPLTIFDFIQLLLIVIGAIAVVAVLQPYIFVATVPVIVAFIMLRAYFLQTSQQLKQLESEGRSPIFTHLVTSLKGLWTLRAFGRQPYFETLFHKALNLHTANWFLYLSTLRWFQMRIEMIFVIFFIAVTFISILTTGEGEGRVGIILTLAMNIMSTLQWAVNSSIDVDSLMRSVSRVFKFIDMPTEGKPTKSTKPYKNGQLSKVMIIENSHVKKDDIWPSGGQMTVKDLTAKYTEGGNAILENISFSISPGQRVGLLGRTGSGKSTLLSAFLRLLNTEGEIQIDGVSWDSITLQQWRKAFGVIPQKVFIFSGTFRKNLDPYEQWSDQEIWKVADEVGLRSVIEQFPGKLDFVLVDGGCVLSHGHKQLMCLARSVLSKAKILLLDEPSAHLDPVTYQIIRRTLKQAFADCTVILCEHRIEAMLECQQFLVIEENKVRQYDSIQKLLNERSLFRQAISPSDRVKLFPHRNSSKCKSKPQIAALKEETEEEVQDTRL

Compound | pEC50 [1] | Maximum % activity (%) [1] [%] | pEC50 [2] | Maximum % activity (%) [2] [%]
C[C@]1(C(=O)N[C@H]2C[C@@H]([C@H]3CC[C@H](C(=O)O)CC3)Oc3cc(OC(F)(F)F)ccc32)COc2cc3c(cc21)OC(F)(F)O3 [Example 149, trans-4-[(2S,4S)-4-{[(7R)-2,2-difluoro-7-methyl-6,7-dihydro-2H-furo[2,3-f][1,3]benzodioxole-7-carbonyl]amino}-7-(trifluoromethoxy)-3,4-dihydro-2H-1-benzopyran-2-yl]cyclohexane-1-carboxylic acid] | 5.66 | 44 | 6.08 | 24
C[C@]1(C(=O)N[C@@H]2C[C@H]([C@H]3CC[C@H](C(=O)O)CC3)Oc3cc(OC(F)(F)F)ccc32)COc2cc3c(cc21)OC(F)(F)O3 [Example 150, trans-4-[(2R,4R)-4-{[(7R)-2,2-difluoro-7-methyl-6,7-dihydro-2H-furo[2,3-f][1,3]benzodioxole-7-carbonyl]amino}-7-(trifluoromethoxy)-3,4-dihydro-2H-1-benzopyran-2-yl]cyclohexane-1-carboxylic acid] | 7.59 | 145 | 8.00 | 94
C[C@]1(C(=O)N[C@@H]2C[C@H](c3ccc(C(=O)O)cn3)Oc3cc(OC(F)F)ccc32)COc2cc3c(cc21)OC(F)(F)O3 [Example 151, 6-[(2R,4R)-7-(difluoromethoxy)-4-{[(7R)-2,2-difluoro-7-methyl-6,7-dihydro-2H-furo[2,3-f][1,3]benzodioxole-7-carbonyl]amino}-3,4-dihydro-2H-1-benzopyran-2-yl]pyridine-3-carboxylic acid] | 7.92 | 132 | 8.12 | 93
COc1ccc2c(c1)O[C@@H]([C@H]1CC[C@H](C(=O)O)CC1)C[C@H]2NC(=O)[C@@]1(C)COc2cc3c(cc21)OC(F)(F)O3 [Example 155, trans-4-[(2R,4R)-4-{[(7R)-2,2-difluoro-7-methyl-6,7-dihydro-2H-furo[2,3-f][1,3]benzodioxole-7-carbonyl]amino}-7-methoxy-3,4-dihydro-2H-1-benzopyran-2-yl]cyclohexane-1-carboxylic acid] | 7.04 | 137 | 7.70 | 102
C[C@]1(C(=O)N[C@@H]2C[C@H]([C@H]3CC[C@H](C(=O)O)CC3)Oc3cc(OC(F)F)ccc32)COc2cc3c(cc21)OC(F)(F)O3 [Example 160, trans-4-[(2R,4R)-7-(difluoromethoxy)-4-{[(7R)-2,2-difluoro-7-methyl-6,7-dihydro-2H-furo[2,3-f][1,3]benzodioxole-7-carbonyl]amino}-3,4-dihydro-2H-1-benzopyran-2-yl]cyclohexane-1-carboxylic acid] | 7.36 | 136 | 8.30 | 85
C[C@]1(C(=O)N[C@@H]2C[C@H]([C@H]3CC[C@@H](C(=O)O)CC3)Oc3cc(OC(F)(F)F)ccc32)COc2cc3c(cc21)OC(F)(F)O3 [Example 162, cis-4-[(2R,4R)-4-{[(7R)-2,2-difluoro-7-methyl-6,7-dihydro-2H-furo[2,3-f][1,3]benzodioxole-7-carbonyl]amino}-7-(trifluoromethoxy)-3,4-dihydro-2H-1-benzopyran-2-yl]cyclohexane-1-carboxylic acid] | 6.15 | 120 | 7.70 | 86
C[C@]1(C(=O)N[C@@H]2C[C@H](C3(C(=O)O)CC3)Oc3cc(OC(F)(F)F)ccc32)COc2cc3c(cc21)OC(F)(F)O3 [Example 166, 1-[(2R,4R)-4-{[(7R)-2,2-difluoro-7-methyl-6,7-dihydro-2H-furo[2,3-f][1,3]benzodioxole-7-carbonyl]amino}-7-(trifluoromethoxy)-3,4-dihydro-2H-1-benzopyran-2-yl]cyclopropane-1-carboxylic acid] | 7.52 | 129 | 7.96 | 84
